One data set deals with VCaP cells. Nature of the data set: Assay on inhibitory activity for VCaP cell proliferation (CCK-8). Format: cell-based. Particulars: Homo sapiens, 168 h.
Data set [1] is described as follows: In vitro liver microsome stability, mouse. Format: in vitro ADME. Particulars: mouse liver microsomes 0.5 mg/mL, 37 °C, NADPH. The procedure: (§1) Liver microsome incubation samples were prepared by mixing a PBS buffer (pH 7.4), a liver microsome solution (0.5 mg/mL), a test compound, and an NADPH + MgCl2 solution, followed by incubation at 37 °C and 300 rpm for 1 h. Zero-hour samples were prepared by mixing a PBS buffer (pH 7.4), a liver microsome solution (0.5 mg/mL), and a test compound. […]

Data set [2] addresses T1, AR in LNCaP (T878A) cells (Homo sapiens, UniProt P10275, T878A).
T1 construct: Assay on degradation activity for AR in LNCaP (T878A) cells; endogenous in cells; host or cells: LNCaP cells
T1 sequence (P10275 1-920 T878A): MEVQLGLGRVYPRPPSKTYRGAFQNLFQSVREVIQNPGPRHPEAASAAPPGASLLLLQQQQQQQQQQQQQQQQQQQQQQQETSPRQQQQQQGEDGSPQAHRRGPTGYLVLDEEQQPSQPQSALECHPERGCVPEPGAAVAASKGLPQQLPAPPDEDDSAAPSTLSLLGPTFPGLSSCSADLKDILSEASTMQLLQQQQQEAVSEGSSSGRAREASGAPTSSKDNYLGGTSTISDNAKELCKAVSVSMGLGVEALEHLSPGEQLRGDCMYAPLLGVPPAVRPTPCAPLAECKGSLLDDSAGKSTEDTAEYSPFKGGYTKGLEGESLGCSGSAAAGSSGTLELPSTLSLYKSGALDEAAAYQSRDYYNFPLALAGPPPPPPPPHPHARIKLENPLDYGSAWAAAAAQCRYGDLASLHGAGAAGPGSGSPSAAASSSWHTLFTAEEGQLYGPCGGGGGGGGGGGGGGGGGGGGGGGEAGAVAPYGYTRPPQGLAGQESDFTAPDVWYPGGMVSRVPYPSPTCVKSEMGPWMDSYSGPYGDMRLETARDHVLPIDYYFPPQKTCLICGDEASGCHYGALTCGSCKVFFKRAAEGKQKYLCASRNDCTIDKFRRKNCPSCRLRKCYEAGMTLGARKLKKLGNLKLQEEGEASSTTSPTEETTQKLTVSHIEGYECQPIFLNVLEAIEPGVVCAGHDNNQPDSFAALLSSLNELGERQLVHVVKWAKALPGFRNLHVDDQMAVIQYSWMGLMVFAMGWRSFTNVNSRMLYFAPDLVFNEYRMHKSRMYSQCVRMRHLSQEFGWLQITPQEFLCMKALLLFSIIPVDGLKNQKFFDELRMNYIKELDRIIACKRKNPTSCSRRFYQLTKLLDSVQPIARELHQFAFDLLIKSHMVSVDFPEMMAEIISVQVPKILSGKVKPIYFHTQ
Briefly: Assay on degradation activity for AR in LNCaP (T878A) cells (HTRF). Format: cell-based. Particulars: maximum degradation rate, 24 h. The procedure:
The detection was carried out using the HTRF HUMAN ANDROGEN RECEPTOR DETECTION KIT (cisbio, 64ANDRPEG), 4× Supplemented Lysis buffer was prepared using the Blocking reagent stock solution (100×) and Lysis buffer stock solution (4×), and 1× Supplemented Lysis buffer was prepared using the 4× Supplemented Lysis buffer and ddH2O. Premixed antibody solutions were prepared using Detection buffer, Androgen Receptor Eu Cryptate antibody, and Androgen Receptor d2 antibody.
The cells were cultured overnight in a cell incubator. […] After the cells were oscillated for 40 min at room temperature, 16 µL of the cell lysis buffer was added to a 384-well plate, the Premixed antibody solutions were added at 4 µL/well, and the mixture was left to stand at 25 °C for 2 h. […] Table 2. Degradation activity of compounds for AR in LNCaP (T878A) cells

A short description of data set [3]: In vitro liver microsome stability, human. The settings on record: human liver microsomes 0.5 mg/mL, 37 °C, NADPH. The data set is classed as in vitro ADME. The procedure:
as §1

Another data set concerns LNCaP (T878A) cells. Nature of the data set: cells. Particulars: Homo sapiens, 168 h.

Bounds are passed on as bounds.

As for `COc1cc(O[C@H]2C(C)(C)[C@H](NC(=O)c3ccc(N4CCC(CN5CCc6c(ccc7c(C8CCC(=O)NC8=O)noc67)C5)CC4)cn3)C2(C)C)ccc1C#N` (some centres unmarked) [Compound 2], the figures for the IC50 in the data set on VCaP cells and with LNCaP (T878A) cells were less than 2000 nM and less than 50 nM, respectively. Also, the “MLM (mouse) Remaining amount at 60 min %” value in data set [1] is recorded as greater than 70%. Moreover, in data set [2], the Dmax (as a rule, the largest share of the target that was removed) was greater than 90%. Also, in data set [3], the “HLM (human) Remaining amount at 60 min %” value is reported as greater than 70%.

These data come from EP4768489A1, “CYCLOBUTYL-CONTAINING COMPOUNDS” (Chia Tai Tianqing Pharmaceutical Group Co., Ltd., priority 2023, dated 2025).
